{"source": "the Bradley open melting point set (2014)", "data": [{"units": {"melting point": "°C"}, "values": [{"compound": "CC(C)(C)OC(=O)N[C@H](CO)C(=O)O", "note": "[N-boc-D-serine]", "melting point": 90}, {"compound": "CC(C)[C@@H](NC(=O)OC(C)(C)C)C(=O)O", "note": "[N-boc-D-valine]", "melting point": 78}, {"compound": "C[C@H](NC(=O)OC(C)(C)C)C(=O)O", "note": "[N-boc-L-alanine]", "melting point": 82}, {"compound": "C[C@@H](CO)NC(=O)OC(C)(C)C", "note": "[N-boc-L-alaninol]", "melting point": 59}, {"compound": "CSCC[C@H](NC(=O)OC(C)(C)C)C(=O)O", "note": "[N-boc-L-methionine]", "melting point": 50}, {"compound": "CC(C)[C@H](NC(=O)OC(C)(C)C)C(=O)O", "note": "[N-boc-L-valine]", "melting point": 79}, {"compound": "CC(C)(C)OC(=O)N[C@H](COCc1ccccc1)C(=O)O", "note": "[N-boc-o-benzyl-D-serine]", "melting point": 62}, {"compound": "CCCCOC(=O)c1ccc(O)cc1", "note": "[N-butyl 4-hydroxybenzoate]", "melting point": 69}, {"compound": "CCCCc1ccccc1", "note": "[N-butylbenzene]", "melting point": -88}, {"compound": "O=C(O)C1CCN(C(=O)CCl)CC1", "note": "[N-chloroacetylisonipecotic acid]", "melting point": 110}, {"compound": "CCCCCCCCCCCCc1ccccc1", "note": "[N-dodecylbenzene]", "melting point": -7}, {"compound": "CCNc1ccccc1", "note": "[N-ethylaniline]", "melting point": -64}, {"compound": "CCN(C(C)C)C(C)C", "note": "[N-ethyldiisopropylamine]", "melting point": -46}, {"compound": "CC[C@H](C)[C@H](NC(=O)OCC1c2ccccc2-c2ccccc21)C(=O)O", "note": "[N-fmoc-L-isoleucine]", "melting point": 147}, {"compound": "CC(C)C[C@H](NC(=O)OCC1c2ccccc2-c2ccccc21)C(=O)O", "note": "[N-fmoc-L-leucine]", "melting point": 154}, {"compound": "CSCC[C@H](NC(=O)OCC1c2ccccc2-c2ccccc21)C(=O)O", "note": "[N-fmoc-L-methionine]", "melting point": 134}, {"compound": "CCCCCCCCCCCCCCCCCCCCC", "note": "[N-heneicosane]", "melting point": 41}, {"compound": "CCCCCCCc1ccccc1", "note": "[N-heptylbenzene]", "melting point": -48}, {"compound": "CCCCCCCCCCCCCCCCCCCCCCCCCC", "note": "[N-hexacosane]", "melting point": 57}, {"compound": "CC(C)Nc1ccc(Nc2ccccc2)cc1", "note": "[N-isopropyl-n'-phenyl-p-phenylenediamine]", "melting point": 77}, {"compound": "CNc1ccc([N+](=O)[O-])cc1", "note": "[N-methyl-4-nitroaniline]", "melting point": 153}, {"compound": "CN(N)c1ccc(C(F)(F)F)cc1[N+](=O)[O-]", "note": "[N-methyl-N-[2-nitro-4-(trifluoromethyl)phenyl]hydrazine]", "melting point": 66}, {"compound": "CNC=O", "note": "[N-methylformamide]", "melting point": -4}, {"compound": "O=C1C=C/C(=O)N(N1)C", "note": "[N-methylmaleic hydrazide]", "melting point": 218}, {"compound": "CCCCCCCCCCCCCCC", "note": "[N-pentadecane]", "melting point": 10}, {"compound": "CCCCCOC(=O)c1ccc(O)cc1", "note": "[N-pentyl 4-hydroxybenzoate]", "melting point": 38}, {"compound": "OCCNc1ccccc1", "note": "[N-phenylethanolamine]", "melting point": -30}, {"compound": "O=C(O)CNc1ccccc1", "note": "[N-phenylglycine]", "melting point": 118}, {"compound": "CCCOC(=O)c1ccc(O)cc1", "note": "[N-propyl 4-hydroxybenzoate]", "melting point": 97}, {"compound": "CC(C)(C)/[N+]([O-])=C/c1ccccc1", "note": "[N-tert-butyl-alpha-phenylnitrone]", "melting point": 73}, {"compound": "O=C(NC(Cc1ccccc1)C(=O)O)OCc1ccccc1[N+](=O)[O-]", "note": "(stereo not drawn) [N-{[(2-nitrobenzyl)oxy]carbonyl}phenylalanine]", "melting point": 141}, {"compound": "CC(C)(C)NCC(O)COc1cccc2c1C[C@H](O)[C@H](O)C2", "note": "(stereo partly drawn) [Nadolol]", "melting point": 124}, {"compound": "CCn1cc(C(=O)O)c(=O)c2ccc(C)nc21", "note": "[Nalidixic Acid]", "melting point": 230}, {"compound": "NC(=O)[C@H](Cc1ccccc1)NC(=O)OCc1ccccc1", "note": "[Nalpha-[(benzyloxy)carbonyl]phenylalaninamide]", "melting point": 163}, {"compound": "C[C@]12CC[C@H]3[C@@H](CCC4=CC(=O)CC[C@@H]43)[C@@H]1CC[C@@H]2O", "note": "[Nandrolone]", "melting point": 112}, {"compound": "c1ccc2cc3cc4ccccc4cc3cc2c1", "note": "[Naphthacene]", "melting point": 357}, {"compound": "O=C(O)Cc1cccc2ccccc12", "note": "[Naphthalen-1-Yl-Acetic Acid]", "melting point": 135}, {"compound": "Nc1cc2ccccc2cc1N", "note": "[Naphthalene-2,3-diamine]", "melting point": 190}, {"compound": "c1ccc2ccccc2c1", "note": "[Naphthalene]", "melting point": 82}, {"compound": "COc1ccc2cc(C(C)CO)ccc2c1", "note": "(stereo not drawn) [Naproxol]", "melting point": 87}, {"compound": "C[C@@H]1CC=CC=CC=CC=C[C@H](OC2O[C@H](C)[C@@H](O)[C@H](N)[C@@H]2O)C[C@@H]2O[C@](O)(C[C@@H](O)C[C@H]3O[C@@H]3C=CC(=O)O1)C[C@H](O)[C@H]2C(=O)O", "note": "(stereo partly drawn) [Natamycin]", "melting point": 290}, {"compound": "O=C(O)c1cccnc1", "note": "[Niacin]", "melting point": 237}, {"compound": "O=C(O)c1cccnc1", "note": "[Nicotinic acid]", "melting point": 237}, {"compound": "CCCCCCCCC=O", "note": "[Nonanal]", "melting point": -18}, {"compound": "C#C[C@]1(O)CC[C@H]2[C@@H]3CCC4=CC(=O)CC[C@@H]4[C@H]3CC[C@@]21CC", "note": "[Norgestrel]", "melting point": 206}, {"compound": "O=C(OCCOCn1c2N\\C(=N/C(=O)c2nc1)N)C", "note": "[O-Acetylacyclovir]", "melting point": 242}, {"compound": "Cc1ccc(C)n1-c1ccc(F)cc1", "note": "[OSM-S-01]", "melting point": 48.5}, {"compound": "Cc1cc(C=O)c(C)n1-c1ccc(F)cc1", "note": "[OSM-S-02]", "melting point": 118}, {"compound": "CCOC(=O)c1cc(C)n(-c2ccc(F)cc2)c1C", "note": "[OSM-S-03]", "melting point": 64.5}, {"compound": "Cc1cc(C(=O)OCC(=N)O)c(C)n1-c1ccc(F)cc1", "note": "[OSM-S-05]", "melting point": 178}, {"compound": "Cc1cc(C(O)=NCC(=N)O)c(C)n1-c1ccc(F)cc1", "note": "[OSM-S-19]", "melting point": 194}, {"compound": "Cc1ccc(C)n1-c1ccc(C(F)(F)F)cc1", "note": "[OSM-S-27]", "melting point": 71.5}, {"compound": "CCOC(=O)c1cc(C)n(-c2ccc(C)cc2)c1C", "note": "[OSM-S-30]", "melting point": 61}, {"compound": "CC(=O)N(C1=NC(=O)/C(=C/c2cc(C)n(-c3ccc(C(F)(F)F)cc3)c2C)S1)c1ccccc1", "note": "[OSM-S-45]", "melting point": 310}, {"compound": "Cc1cc(/C=C2\\SC(=Nc3ccccc3)N=C2O)c(C)n1-c1ccccn1", "note": "[OSM-S-51]", "melting point": 277}, {"compound": "Cc1cc(/C=C2\\S/C(=N\\c3ccccc3)N(C3CCCC3)C2=O)c(C)n1-c1ccc(C(F)(F)F)cc1", "note": "[OSM-S-54]", "melting point": 71.5}, {"compound": "OC1=NC(=Nc2ccccc2)S/C1=C\\c1ccccc1", "note": "[OSM-S-55]", "melting point": 260}, {"compound": "C[C@@H]1O[C@@H](O[C@H]2C[C@@H](O)[C@]3(CO)[C@H]4[C@H](O)C[C@]5(C)[C@@H](C6=CC(=O)OC6)CC[C@]5(O)[C@@H]4CC[C@]3(O)C2)[C@H](O)[C@H](O)[C@H]1O", "note": "[Ouabain]", "melting point": 200}, {"compound": "Clc1ccc(-c2ccccc2)cc1", "note": "[PCB-3]", "melting point": 78}, {"compound": "Clc1ccc(-c2ccccc2Cl)cc1", "note": "[PCB-8]", "melting point": 44}, {"compound": "Clc1ccc(-c2ccc(Cl)cc2)cc1", "note": "[PCB-15]", "melting point": 149}, {"compound": "Clc1ccc(-c2ccc(Cl)cc2Cl)cc1", "note": "[PCB-28]", "melting point": 58}, {"compound": "Clc1ccc(Cl)c(-c2cc(Cl)c(Cl)cc2Cl)c1", "note": "[PCB-101]", "melting point": 77}, {"compound": "Clc1ccc(-c2ccc(Cl)c(Cl)c2Cl)cc1Cl", "note": "[PCB-105]", "melting point": 117}, {"compound": "Clc1cc(Cl)c(-c2ccc(Cl)c(Cl)c2Cl)cc1Cl", "note": "[PCB-138]", "melting point": 79}, {"compound": "CCCCCCCCCCCCCCCC(=O)O", "note": "[Palmitic acid]", "melting point": 62.5}, {"compound": "Oc1c(Br)c(Br)c(Br)c(Br)c1Br", "note": "[Pentabromophenol]", "melting point": 230}, {"compound": "Clc1cc(Cl)c(Cl)c(Cl)c1Cl", "note": "[Pentachlorobenzene]", "melting point": 85}, {"compound": "Cc1c(C)c(C)c(C=O)c(C)c1C", "note": "[Pentamethylbenzaldehyde]", "melting point": 133}, {"compound": "CCCCCO", "note": "[Pentan-1-ol]", "melting point": -78}, {"compound": "[O-][Cl+3]([O-])([O-])O", "note": "[Perchloric acid]", "melting point": -17}, {"compound": "ClC(Cl)=C/C3C(C(=O)OCc2cccc(Oc1ccccc1)c2)C3(C)C", "note": "(stereo not drawn) [Permethrin]", "melting point": 34}, {"compound": "c1cc2cccc3c4cccc5cccc(c(c1)c23)c54", "note": "[Perylene] [listing 1 of 2 here]", "melting point": 278}, {"compound": "c1cc2cccc3c4cccc5cccc(c(c1)c23)c54", "note": "[Perylene] [listing 2 of 2 here]", "melting point": 278}, {"compound": "c1ccc2c(c1)ccc1ccccc12", "note": "[Phenanthrene]", "melting point": 101}, {"compound": "O=C1OC(c2ccc(O)cc2)(c2ccc(O)cc2)c2ccccc21", "note": "[Phenolphthalein]", "melting point": 262}, {"compound": "c1ccc2c(c1)Nc1ccccc1S2", "note": "[Phenothazine]", "melting point": 187}, {"compound": "c1ccc2c(c1)Oc1ccccc1S2", "note": "[Phenoxathiine]", "melting point": 59.5}, {"compound": "CCCCC1C(=O)N(c2ccccc2)N(c2ccccc2)C1=O", "note": "[Phenylbutazone]", "melting point": 105}, {"compound": "O=Cc1ccccc1C=O", "note": "[Phthalaldehyde]", "melting point": 56}, {"compound": "O=C(O)CCCCCC(=O)O", "note": "[Pimelic Acid]", "melting point": 106}, {"compound": "N#Cc1ccc2c(c1)OCO2", "note": "[Piperonylonitrile]", "melting point": 94}, {"compound": "COc1cc2nc(N3CCN(C(=O)c4ccco4)CC3)nc(N)c2cc1OC", "note": "[Prazosin]", "melting point": 279}, {"compound": "C[C@]12C=CC(=O)C=C1CC[C@@H]1[C@@H]2[C@@H](O)C[C@@]2(C)[C@H]1CC[C@]2(O)C(=O)CO", "note": "[Prednisolone]", "melting point": 240}, {"compound": "CCCN(CC1CC1)c1c([N+](=O)[O-])cc(C(F)(F)F)cc1[N+](=O)[O-]", "note": "[Profluralin]", "melting point": 32}, {"compound": "CC(=O)[C@H]1CC[C@H]2[C@@H]3CCC4=CC(=O)CC[C@]4(C)[C@H]3CC[C@]12C", "note": "[Progesterone]", "melting point": 130}, {"compound": "CCCOC(=O)c1ccc(O)cc1", "note": "[Propyl 4-hydroxybenzoate]", "melting point": 96}, {"compound": "CN[C@@H](C)[C@@H](O)c1ccccc1", "note": "[Pseudoephedrine]", "melting point": 118}, {"compound": "NC(=O)c1cnccn1", "note": "[Pyrazinamide]", "melting point": 189}, {"compound": "c1cnccn1", "note": "[Pyrazine]", "melting point": 55}, {"compound": "Sc1ccccn1", "note": "[Pyridine-2-thiol]", "melting point": 129}, {"compound": "c1ccncc1", "note": "[Pyridine]", "melting point": -42}, {"compound": "O=C(O)c1cc(C(=O)O)c(C(=O)O)cc1C(=O)O", "note": "[Pyromellitic Acid]", "melting point": 276}, {"compound": "C1CCNC1", "note": "[Pyrrolidine]", "melting point": -60}, {"compound": "C=C[C@H]1CN2CC[C@H]1C[C@@H]2[C@@H](O)c1ccnc2ccc(OC)cc12", "note": "[Quinidine]", "melting point": 174}, {"compound": "CC=1CCC[C@](C)(C)C=1/C=CC(C)=CC=CC(C)=CC(=O)O", "note": "[Retinoic acid]", "melting point": 190}, {"compound": "C[C@@H]1O[C@H](O)[C@@H](O)[C@H](O)[C@H]1O", "note": "[Rhamnose]", "melting point": 122}, {"compound": "Cc1cc2nc3c(=O)[nH]c(=O)nc-3n(C[C@H](O)[C@H](O)[C@H](O)CO)c2cc1C", "note": "[Riboflavin]", "melting point": 280}]}]}
